In brackets after ≈: the same amount, converted by molar mass. Activity calls are given as the source filed them. The rule behind the calls is not given here.
Experiments:
[1] = biological target: T1, Outer-membrane lipoprotein carrier protein (Escherichia coli (strain K12)) (UniProt P61316); assay: Inhibition of IPTG-stimulated Escherichia coli K-12 lolA at 4 fold MIC by microarray analysis
T1 sequence (whole entry): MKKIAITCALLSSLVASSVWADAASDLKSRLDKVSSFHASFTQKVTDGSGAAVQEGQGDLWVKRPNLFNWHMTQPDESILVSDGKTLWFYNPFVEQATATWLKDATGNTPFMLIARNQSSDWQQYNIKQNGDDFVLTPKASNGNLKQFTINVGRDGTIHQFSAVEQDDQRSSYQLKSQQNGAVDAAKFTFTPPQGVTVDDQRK

Escherichia coli [2] = assay: Antibacterial activity against Escherichia coli K-12 harboring lolA gene after 16 hrs by serial dilution method; assay type: functional; details: K-12, 16 h
[3] = biological target: T1, Outer-membrane lipoprotein carrier protein (Escherichia coli (strain K12)); assay: Inhibition of IPTG-stimulated Escherichia coli K-12 lolA at 16 fold MIC after 16 hrs by spectrophotometry
Escherichia coli [4] = assay: Induction of Lpp accumulation in inner membrane of Escherichia coli K-12 MG1655 at 320 ug/ml after 20 mins by SDS-PAGE; assay type: functional, organism-based
Escherichia coli [5] = assay: Induction of Lpp accumulation in inner membrane of Escherichia coli K-12 MG1655 at 320 ug/ml after 20 mins by autoradiography; assay type: functional, organism-based
[6] = biological target: Outer-membrane lipoprotein carrier protein (Escherichia coli (strain K12), UniProt P61316); assay: Binding affinity to Escherichia coli K-12 lolA expressed in Escherichia coli BL21(AI) by NMR spectrometry
[7] = biological target: Multidrug efflux pump subunit AcrB (Escherichia coli (strain K12)) (UniProt P31224); assay: Binding affinity to Escherichia coli K-12 MC1061 acrB assessed as decrease in susceptibility to compound efflux at 2 to 128 ug/ml after 16 hrs by plate reader assay
Escherichia coli [8] = assay: Antibacterial activity against Escherichia coli K-12 MG1655 after 16 hrs by microbroth dilution method; assay type: functional; details: K-12 MG1655, 16 h
Escherichia coli [9] = assay: Antibacterial activity against Escherichia coli ATCC 25922 after 16 hrs by microbroth dilution method; assay type: functional; details: ATCC 25922, 16 h
Pseudomonas aeruginosa [10] = assay: Antibacterial activity against Pseudomonas aeruginosa PAO1 after 16 hrs by microbroth dilution method; assay type: functional; details: PAO1, 16 h
[11] = test system: Stenotrophomonas maltophilia; assay: Antibacterial activity against Stenotrophomonas maltophilia B22020 after 16 hrs by microbroth dilution method; assay type: functional; details: B22020, 16 h
Burkholderia cepacia = assay: Antibacterial activity against Burkholderia cepacia B154408 after 16 hrs by microbroth dilution method; assay type: functional; details: B154408, 16 h
Bacillus subtilis = assay: Antibacterial activity against Bacillus subtilis 168 after 16 hrs by microbroth dilution method; assay type: functional; details: subsp. subtilis str. 168, 16 h
Micrococcus luteus = assay: Antibacterial activity against Micrococcus luteus after 16 hrs by microbroth dilution method; assay type: functional
Staphylococcus aureus = assay: Antibacterial activity against Staphylococcus aureus after 16 hrs by microbroth dilution method; assay type: functional
HeLa = assay: Cytotoxicity against human HeLa cells after 24 hrs by Cell Titre-Glo luminescent assay; assay type: cell-based
Candida albicans = assay: Antifungal activity against Candida albicans after 16 hrs by microbroth dilution method; assay type: functional
Pseudomonas aeruginosa [12] = assay: Antibacterial activity against multidrug-resistant Pseudomonas aeruginosa PS216 after 16 hrs by microbroth dilution method; assay type: functional; details: PS216, 16 h
Pseudomonas aeruginosa [13] = assay: Antibacterial activity against multidrug-resistant Pseudomonas aeruginosa PS225 after 16 hrs by microbroth dilution method; assay type: functional; details: PS225, 16 h
Pseudomonas aeruginosa [14] = assay: Antibacterial activity against multidrug-resistant Pseudomonas aeruginosa PS232 after 16 hrs by microbroth dilution method; assay type: functional; details: PS232, 16 h
Pseudomonas aeruginosa [15] = assay: Antibacterial activity against multidrug-resistant Pseudomonas aeruginosa PS301 after 16 hrs by microbroth dilution method; assay type: functional; details: PS301, 16 h
Pseudomonas aeruginosa [16] = assay: Antibacterial activity against multidrug-resistant Pseudomonas aeruginosa PS364 after 16 hrs by microbroth dilution method; assay type: functional; details: PS364, 16 h
Pseudomonas aeruginosa [17] = assay: Antibacterial activity against multidrug-resistant Pseudomonas aeruginosa PS35823 after 16 hrs by microbroth dilution method; assay type: functional; details: PS35823, 16 h
Pseudomonas aeruginosa [18] = assay: Antibacterial activity against multidrug-resistant Pseudomonas aeruginosa PS36769 after 16 hrs by microbroth dilution method; assay type: functional; details: PS36769, 16 h
Pseudomonas aeruginosa [19] = assay: Antibacterial activity against multidrug-resistant Pseudomonas aeruginosa PS37619 after 16 hrs by microbroth dilution method; assay type: functional; details: PS37619, 16 h
Pseudomonas aeruginosa [20] = assay: Antibacterial activity against multidrug-resistant Pseudomonas aeruginosa PS37834 after 16 hrs by microbroth dilution method; assay type: functional; details: PS37834, 16 h
Pseudomonas aeruginosa [21] = assay: Antibacterial activity against multidrug-resistant Pseudomonas aeruginosa PS8534624 after 16 hrs by microbroth dilution method; assay type: functional; details: PS8534624, 16 h
Pseudomonas aeruginosa [22] = assay: Antibacterial activity against multidrug-resistant Pseudomonas aeruginosa PS8539204 after 16 hrs by microbroth dilution method; assay type: functional; details: PS8539204, 16 h
Pseudomonas aeruginosa [23] = assay: Antibacterial activity against multidrug-resistant Pseudomonas aeruginosa PAE231 after 16 hrs by microbroth dilution method; assay type: functional; details: PAE231, 16 h
Pseudomonas aeruginosa [24] = assay: Antibacterial activity against multidrug-resistant Pseudomonas aeruginosa PAE252 after 16 hrs by microbroth dilution method; assay type: functional; details: PAE252, 16 h
Pseudomonas aeruginosa [25] = assay: Antibacterial activity against multidrug-resistant Pseudomonas aeruginosa PAE287 after 16 hrs by microbroth dilution method; assay type: functional; details: PAE287, 16 h
Pseudomonas aeruginosa [26] = assay: Antibacterial activity against multidrug-resistant Pseudomonas aeruginosa PAE302 after 16 hrs by microbroth dilution method; assay type: functional; details: PAE302, 16 h
Pseudomonas aeruginosa [27] = assay: Antibacterial activity against multidrug-resistant Pseudomonas aeruginosa PAE349 after 16 hrs by microbroth dilution method; assay type: functional; details: PAE349, 16 h
[28] = biological target: T1, Outer-membrane lipoprotein carrier protein (Escherichia coli (strain K12)); assay: Inhibition of IPTG-stimulated Escherichia coli K-12 lolA at 16 fold MIC by microarray analysis
[29] = biological target: T2, Outer membrane protein TolC (Escherichia coli (strain K12)) (UniProt P02930); assay: Inhibition of IPTG-stimulated Escherichia coli K-12 tolC at 16 fold MIC by microarray analysis
T2 sequence (whole entry): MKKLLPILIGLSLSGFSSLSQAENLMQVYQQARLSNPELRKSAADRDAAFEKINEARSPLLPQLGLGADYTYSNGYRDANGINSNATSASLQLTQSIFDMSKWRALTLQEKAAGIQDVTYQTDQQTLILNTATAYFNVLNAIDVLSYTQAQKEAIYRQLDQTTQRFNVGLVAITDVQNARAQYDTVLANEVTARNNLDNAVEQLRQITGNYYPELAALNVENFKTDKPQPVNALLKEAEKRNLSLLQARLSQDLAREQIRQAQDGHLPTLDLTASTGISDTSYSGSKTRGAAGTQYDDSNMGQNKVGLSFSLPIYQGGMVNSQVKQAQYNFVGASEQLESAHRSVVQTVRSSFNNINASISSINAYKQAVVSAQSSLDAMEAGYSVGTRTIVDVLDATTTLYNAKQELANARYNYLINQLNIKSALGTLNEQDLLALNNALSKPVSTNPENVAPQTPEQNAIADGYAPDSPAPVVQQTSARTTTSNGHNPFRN

[30] = biological target: T1, Outer-membrane lipoprotein carrier protein (Escherichia coli (strain K12)); assay: Inhibition of IPTG-stimulated Escherichia coli K-12 lolA at 8 fold MIC by microarray analysis
[31] = biological target: T2, Outer membrane protein TolC (Escherichia coli (strain K12)); assay: Inhibition of IPTG-stimulated Escherichia coli K-12 tolC at 8 fold MIC by microarray analysis
[32] = biological target: T2, Outer membrane protein TolC (Escherichia coli (strain K12)); assay: Inhibition of IPTG-stimulated Escherichia coli K-12 tolC at 4 fold MIC by microarray analysis

Chain of Multidrug efflux pump subunit AcrB (Escherichia coli (strain K12)) (P31224 whole entry): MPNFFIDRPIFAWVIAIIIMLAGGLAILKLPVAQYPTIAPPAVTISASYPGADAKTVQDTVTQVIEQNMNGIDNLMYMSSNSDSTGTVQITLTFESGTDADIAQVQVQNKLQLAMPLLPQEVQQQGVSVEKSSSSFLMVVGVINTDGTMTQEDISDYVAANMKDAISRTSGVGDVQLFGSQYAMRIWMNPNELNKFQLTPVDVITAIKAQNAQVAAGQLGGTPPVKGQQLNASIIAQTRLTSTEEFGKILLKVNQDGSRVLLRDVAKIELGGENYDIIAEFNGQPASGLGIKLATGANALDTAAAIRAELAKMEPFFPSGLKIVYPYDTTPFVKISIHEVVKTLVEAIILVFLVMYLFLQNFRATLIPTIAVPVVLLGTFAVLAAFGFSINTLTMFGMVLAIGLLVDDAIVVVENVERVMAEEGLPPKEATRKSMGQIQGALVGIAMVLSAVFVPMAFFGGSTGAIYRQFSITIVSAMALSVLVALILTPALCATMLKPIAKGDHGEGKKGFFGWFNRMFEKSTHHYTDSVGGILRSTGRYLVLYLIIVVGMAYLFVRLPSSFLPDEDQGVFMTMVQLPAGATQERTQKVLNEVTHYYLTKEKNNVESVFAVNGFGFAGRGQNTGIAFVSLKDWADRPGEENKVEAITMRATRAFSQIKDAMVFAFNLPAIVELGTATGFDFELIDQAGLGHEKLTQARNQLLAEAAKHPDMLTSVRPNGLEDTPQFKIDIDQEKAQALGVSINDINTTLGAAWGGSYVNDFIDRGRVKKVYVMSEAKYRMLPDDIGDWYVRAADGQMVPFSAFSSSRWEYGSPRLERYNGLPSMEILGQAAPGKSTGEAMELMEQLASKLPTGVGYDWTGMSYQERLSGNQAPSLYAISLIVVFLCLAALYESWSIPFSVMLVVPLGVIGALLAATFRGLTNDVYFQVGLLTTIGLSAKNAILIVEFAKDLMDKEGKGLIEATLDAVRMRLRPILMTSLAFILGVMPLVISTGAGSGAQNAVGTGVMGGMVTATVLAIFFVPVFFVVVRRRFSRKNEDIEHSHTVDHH

COc1ccc(CCN2CN=C(SCc3ccc(Cl)cc3)NC2)cc1OC
inhibition [1]: Active
MIC (Escherichia coli [2]): 8 µg/mL (≈ 19.7 µM)
inhibition [3]: inactive
Activity (Escherichia coli [4]): Active
Activity (Escherichia coli [5]): Active
Kd [6]: 7.5 µM
Activity [7]: Active
MIC (Escherichia coli [8]): 16 µg/mL (≈ 39.4 µM)
MIC (Escherichia coli [9]): 16 µg/mL (≈ 39.4 µM)
MIC (Pseudomonas aeruginosa [10]): 4 µg/mL (≈ 9.85 µM)
MIC [11]: 8 µg/mL (≈ 19.7 µM)
MIC (Burkholderia cepacia): 128 µg/mL (≈ 315 µM)
MIC (Bacillus subtilis): > 256 µg/mL
MIC (Micrococcus luteus): > 256 µg/mL
MIC (Staphylococcus aureus): > 256 µg/mL
Activity (HeLa): > 256 µg/mL
MIC (Candida albicans): > 256 µg/mL
MIC (Pseudomonas aeruginosa [12]): 16 µg/mL (≈ 39.4 µM)
MIC (Pseudomonas aeruginosa [13]): 1 µg/mL (≈ 2.46 µM)
MIC (Pseudomonas aeruginosa [14]): 4 µg/mL (≈ 9.85 µM)
MIC (Pseudomonas aeruginosa [15]): 256 µg/mL (≈ 631 µM)
MIC (Pseudomonas aeruginosa [16]): 128 µg/mL (≈ 315 µM)
MIC (Pseudomonas aeruginosa [17]): 4 µg/mL (≈ 9.85 µM)
MIC (Pseudomonas aeruginosa [18]): 4 µg/mL (≈ 9.85 µM)
MIC (Pseudomonas aeruginosa [19]): 128 µg/mL (≈ 315 µM)
MIC (Pseudomonas aeruginosa [20]): 16 µg/mL (≈ 39.4 µM)
MIC (Pseudomonas aeruginosa [21]): 2 µg/mL (≈ 4.93 µM)
MIC (Pseudomonas aeruginosa [22]): 128 µg/mL (≈ 315 µM)
MIC (Pseudomonas aeruginosa [23]): 16 µg/mL (≈ 39.4 µM)
MIC (Pseudomonas aeruginosa [24]): 2 µg/mL (≈ 4.93 µM)
MIC (Pseudomonas aeruginosa [25]): 4 µg/mL (≈ 9.85 µM)
MIC (Pseudomonas aeruginosa [26]): 4 µg/mL (≈ 9.85 µM)
MIC (Pseudomonas aeruginosa [27]): 4 µg/mL (≈ 9.85 µM)
inhibition [28]: Active
inhibition [29]: Active
inhibition [30]: Active
inhibition [31]: Active
inhibition [32]: Active
